Data reported in article PMC9763021, “Comprehensive Assessment of Biomolecular Interactions of Morpholine-Based Mixed Ligand Cu(II) and Zn(II) Complexes of 2,2′-Bipyridine as Potential Anticancer and SARS-CoV-2 Agents: A Synergistic Experimental and Structure-Based Virtual Screening” (Bioinorganic Chemistry and Applications, 2022).

System: ethidium bromide bound DNA (CT-DNA)
Assay: Ethidium bromide-DNA fluorescence quenching (emission titration)
Assay type: binding, calf thymus
Details: for Scatchard analysis KSA / Scatchard analysis n / LWB method KLB: DNA; for Kass (DNA), SV method II / KSV (DNA), SV method I: EB-DNA; for KSV (DNA), SV method I: 610 nm; for Kapp: KEB = 10^7 M^−1 at 50 μM EB; for Kq (DNA), SV method I: Kq=KSV/τ0, τ0 = 10^−8 S; for LWB method KLB: Lineweaver–Burk; for P (DNA), ratio of fluorescence quantum efficiency: intercept of F/F0 vs 1/[DNA]; for n (DNA), SV method II: number of binding sites; for ∆Gb° (DNA), SV method II: –RT lnKass, 298 K
Protocol: The experiment was performed in the 200 to 800 nm region. This is supporting evidence for the complexes' manner of deoxyribonucleic acid binding. When DNA (200 μM) was present or absent, we carefully monitored the intensity variations between 610 nm and 510 nm during the initial emission and excitation of EB [6, 28, 37]. Similarly, emission titrations for BSA interaction with different concentrations between 2.5 μM and 25 μM for all substances were conducted in a Tris-HCl buffer solution (pH: 7.4) between the regions of 300 nm and 400 nm.
Emission titration is a more sensitive approach to examining the binding tendency between chemical substances and biomolecules. The emission measurements are extensively supported to scrutinize the interacting modes between compounds and deoxyribonucleic acid. In the presence of deoxyribonucleic acid (240 μM) in a Tris-HCl buffer solution (pH: 7.2) at room temperature, none of the test compounds emitted fluorescence. The titrations were also executed with the EB molecule, which is also a comparatively low fluorescence emission in Tris-HCl buffer solution (pH: 7.2) in the free state. […] In the investigation, the addition of sample concentrations (0–240 μM) to the solution of DNA-EB results in a notable reduction in the emission intensity at 610 nm (Figure 5 and Table 4). As a result of intense intercalation, the complexes displace the EB in the DNA-EB adduct, causing the emission intensity to drop. The photoelectron shift from the DNA's guanine base to the excited states may be the cause of the frequency of quenching in the emission of chemicals by DNA. Therefore, EB can be utilized as a fluorescent probing agent in the competitive binding experiment.
K SV is denoted as Stern–Volmer binding constant; Kass is represented as association binding constant; Kapp is represented as apparent binding constant, Kapp=KEB[EB]/[compound]=500/[compound], KEB = 10^7 M^−1 at the concentration of 50 μM EB; Gibb's free energy change ΔGb°=–RT lnKass; Kq is represented as bimolecular quenching rate constant/Stern–Volmer dynamic quenching rate constant (Kq=KSV/τ0), average life time of the biomolecular quenching in the absence of a quencher (τ0) = 10^−8 S; Gibb's free energy change ΔGb°=–RT lnKass (where R = […], T = 298 K); KLB is represented as Lineweaver–Burk (LWB) binding constant; KSA is represented as Scatchard association binding constant; Kapp is denoted as apparent binding constant; n is the number of binding sites; P is a ratio of fluorescence quantum efficiency of DNA bound and free complex (P=ɸb/ɸf), which is obtained as intercept from plot F/F0 vs. 1/[DNA], Error limit is ± 2.5% (P < 0.025).(12) Fcorr=Fobs×e^Aex×dex+Aem×dem/2=Fobs×e^Aex+Aem/2, where Fcorr and Fobs are represented as the IFE-corrected fluorescence and observed (uncorrected) emission intensities, respectively. dex and dem are denoted as the cuvette path lengths in the excitation and emission directions, respectively. Aex and Aem are represented as the change in absorbance at the excitation and fluorescence wavelengths, respectively.(13) F0 /F=1+KSVQ=1+Kq τ0, where [Q] is represented as the sample concentration, the emission intensities F0 and F of DNA/BSA in the absence and presence of the quencher (sample), respectively.(14) F0 /F−1=F0−F/F=KSVQlogF0−F/F=logKass+n logQ, (15) KEBEB=Kappcompound, (16) 1/F0−F=1/F0 KLBQ+1/F0 , (17) γ/CF =KSCn−γ, where γ = [(F0 − F)/F0], and CF is denoted as the concentration of sample alone.
The linear regression correlation coefficient (R^2) values for all substances further confirmed that there is no found inner filter effect due to these values are greater than 0.95. Moreover, the following Stern–Volmer equations (13)–(15) were employed to determine the KSV, Kq, and n values (Table 4). The KSV findings were measured from the slope to intercept ratio of the linear regression plot of F0/F vs. [Q] by the SV method I (Figure S22). […]

| SMILES | Scatchard analysis KSA | Scatchard analysis n | Kass (DNA), SV method II | KSV (DNA), SV method I | Kapp | Kq (DNA), SV method I | LWB method KLB | P (DNA), ratio of fluorescence quantum efficiency | n (DNA), SV method II | ∆Gb° (DNA), SV method II |
| --- | --- | --- | --- | --- | --- | --- | --- | --- | --- | --- |
| [O-]c1ccccc1N=Cc1ccc(N2CCOCC2)cc1.[O-]c1ccccc1N=Cc1ccc(N2CCOCC2)cc1.[Zn+2].c1ccc(-c2ccccn2)nc1 [(2a), [Zn(L)2(bpy)]] | 30190 M⁻¹ | 0.971 | 17368 M⁻¹ | 32694 M⁻¹ | 6.569e+06 M⁻¹ | 3.2694e+12 M⁻¹ s⁻¹ | 15630 M⁻¹ | 0.1832 | 1.055 | −24.187 kJM^−1 |
| [Cu+2].[O-]c1ccccc1N=Cc1ccc(N2CCOCC2)cc1.[O-]c1ccccc1N=Cc1ccc(N2CCOCC2)cc1.c1ccc(-c2ccccn2)nc1 [(1a), [Cu(L)2(bpy)]] | 33151 M⁻¹ | 1.033 | 50564 M⁻¹ | 52474 M⁻¹ | 9.894e+06 M⁻¹ | 5.2474e+12 M⁻¹ s⁻¹ | 18846 M⁻¹ | 0.2000 | 1.168 | −26.835 kJM^−1 |
| Oc1ccccc1N=Cc1ccc(N2CCOCC2)cc1 [(HL), 2-(4-morpholinobenzylideneamino)phenol] | 23194 M⁻¹ | 1.096 | 9606 M⁻¹ | 11636 M⁻¹ | 5.829e+06 M⁻¹ | 1.1636e+12 M⁻¹ s⁻¹ | 6985 M⁻¹ | 0.0900 | 0.973 | −22.720 kJM^−1 |
